How the values were obtained:
[1] = Endotoxin binding: competitive displacement of BODIPY TR-Cadaverine from LTA; design: species or system Staphylococcus aureus; conditions: 5 μM peptide; for LTA binding (BC displacement), in words: 10 μM BC, 10 μg/mL LTA, 10 mM Na-PO4; for higher degree of LTA binding than parent peptide: vs ATRA-1 / ATRA1-R3W2
Description: FIGS. 2A-2B are graphs showing endotoxin binding. The figures depict the competitive displacement of BC from LPS/LTA by the peptides. 5 μM of each peptide was incubated with 10 μM BC and 10 μg/mL LPS from E. coli (0111:B4) or LTA from S. aureus. Fluorescence intensity was measured at excitation=580 nm and emission=620 nm. 10 μM BC without endotoxin was used as 100% displacement while 10 μM BC with 10 μg/mL LPS/LTA without any peptide as 0% displacement and the % displacement of BC by each peptide was calculated accordingly. […] had been used as a positive control. The horizontal dotted line coincides with the % displacement of BC by ATRA1 on the y-axis.
FIGS. 6A-6B are graphs showing endotoxin (LPS (FIG. 6A) and LTA (FIG. 6B)) binding. Competitive displacement of BC from LPS/LTA. In each case, 5 μM peptide was incubated with 10 μM BC and 10 μg/mL LPS from E. coli (0111:B4) or LTA from S. aureus. Fluorescence intensity was measured using excitation=580 nm and emission=620 nm. As a positive control 10 μM BC without endotoxin was used as a reference for 100% displacement while 10 μM BC with 10 μg/mL LPS/LTA without any peptide as a negative control and a reference for 0% displacement. These controls were used to calculate % BC displacement for each peptide.
Endotoxin Binding. The binding of endotoxin (LPS/LTA) was evaluated using a fluorogenic conjugateBODIPY TR-Cadaverine (BC). BC binds endotoxin loses its fluorescence. The peptide competitively displaces BC from endotoxin and the fluorescence is reestablished. Competitive inhibition of endotoxin-BC binding was utilized due to presence of peptides already in complexion with endotoxin. 25 μL of 20 μM of peptides in 10 mM Na—PO4 buffer were incubated with 25 μL of LPS (40 μg/mL) or LTA (40 μg/mL) for 15 min and then added with 50 μL of BC (20 uM). Peptides bind to LPS or LTA and competitively prevents BC bind to the endotoxin. BC loses its fluorescence on binding to endotoxin. The fluorescence intensity of the unbound BC was measured at excitation=580 nm and emission=620 nm.
BC contains two functional moieties: BODIPY (boron-dipyrromethene) and cadaverine connected via a carboxamide. BODIPY is the fluorophore of BC and fluoresces in the free state in solution but loses fluorescence when bound to LPS/LTA. The competitive displacement of BC from LPS/LTA by AMPs and thus regeneration of the fluorescence has frequently been used to estimate the binding strength of AMPs with LPS/LTA. In the present studies, 5 μM of each peptide was used to displace BC from LPS/LTA. […] Such observation contradicts the initial assumption that substitution of Lys with arginine would result in increased efficiency of LPS binding. However, with sequential substitutions of Lys with arginine, starting with ATRA1-AR, peptide variants show increased LPS binding with each additional arginine substitution. In terms of LPS binding: ATRA1-AR<ATRA1-AR2<ATRA1-AR3. In ATRA1-R3, the lysine residues at 9th, 5th and 1st positions of ATRA1 were substituted with arginine. In ATRA1-R6 all of the lysine residues were replaced with arginine.

B. cereus ATCC 11778 = experiment: Antimicrobial efficacy (resazurin virtual colony count); type: cell-based, Bacillus cereus; conditions: DPBS
Description: Antimicrobial Studies. The phosphate buffers used for antimicrobial assays were supplemented with non-nitrogenous energy source, 0.1% (w/v) glucose. To conduct antimicrobial assays, bacterial strains were first suspended in respective buffers. E. coli (ATCC 25922) and B. cereus (ATCC 11778) were grown in MHB II up to OD600 nm˜1 and stored as frozen stock in 20% glycerol at −80° C. Occasionally they were thawed and enumerated by serial dilution and spreading on MHB II agar plates. The concentrations of the frozen stocks of E. coli and B. cereus strains were 1.0-1.1*10^8 CFU/mL with OD600 nm˜0.8. In case of other bacterial strains, they were grown on the days of experiment up to OD600 nm˜1-1.5 and then adjusted to OD600 nm˜0.8. The growth media of the drug-resistant bacterial strains were supplemented with few of the respective antibiotics against which they are resistant. […]
Antimicrobial assays in different phosphate buffers and serum were conducted by adapting, with necessary modifications a fast high-throughput method based on Virtual Colony Count technique and later modified by incorporating the use of resazurin. At first serial dilution of a microbial strain in respective buffer was poured in the wells of 96 well polypropylene microplate and was then added with same volume of 2× MHB II supplemented with 80 μg/mL resazurin and incubated at 35° C. in a Gemini EM Microplate Reader (Molecular Devices) overnight with intermittent shaking. As the microbe grows it reduces non-fluorescent resazurin to fluorescent resorufin and the fluorescent intensity of each well were measured (excitation=570 nm, emission=590 nm) each 5 min for 15 hours. The time (t, min) to reach a certain fluorescence (RFU=20000 with respect to the starting fluorescence) was correlated with the initial bacterial concentration (in CFU/mL) in the particular well to obtain a calibration plot of the form: Log([Bacteria],CFU/mL)=b+m*t Equation 4: […]

Sequence	LTA binding (BC displacement), in words [1]	antimicrobial efficacy, in words (B. cereus ATCC 11778)	higher degree of LTA binding than parent peptide [1] [fold]
KRAKKFFKKLK (SEQ ID NO: 4) [ATRA1-A]	significantly lower LTA binding than ATRA1	not effective	
KRFKKFFKKLK (SEQ ID NO: 2) [ATRA1, first 11 residues of NA-CATH]		somewhat effective	
KRFKKFFKKLKGGVIGVTFPF (SEQ ID NO: 38) [ATRA1-HYD, ATRA1 with hydrophobic tail of NA-CATH joined at the C-terminus by a short -GG- segment]			~2
KRFKKFFKKLKNSVKKRAKKFFKKPK (SEQ ID NO: 53) [NA-CATH26, first 26 residues of NA-CATH]	bound LTA to a significantly lower degree than NA-CATH		
RRWKRFFKRWK (SEQ ID NO: 15) [ATRA1-R3W2]	far effective than ATRA1 in binding LTA		
RRWKRFFKRWKGGVIGVTFPF (SEQ ID NO: 50) [ATRA1-R3W2-HYD, ATRA1-R3W2 with hydrophobic tail of NA-CATH joined by -GG-]			~2

From patent publication US11447533B2, “Antimicrobial and anticancer peptides and conjugates and compositions, methods, articles and kits relating thereto” (George Mason Research Foundation, Inc., priority 2018, dated 2022)
